Measured values taken from patent publication US9796990B2 (priority 2011, dated 2017).
In brackets after ≈: the same amount, converted by molar mass. Like-named read-outs stand apart in the source and are kept apart here.

Experiments:
[1] = system: Ceriodaphnia dubia; test: whole plant or invertebrate; details: read-out: EC 50, effective concentration for 50% survival
[2] = system: Bluegill (Lepomis macrochirus); details: in vivo; cited from earlier work

For `CCOP(=S)(OCC)Oc1cc(C)nc(C(C)C)n1` [Untreated diazinon, diazinon], the EC50 ([1]; 24 h) was 0.389 ng/mL (≈ 1.28 nM) and the EC50 ([1]; 48 h) was 0.195 ng/mL (≈ 0.641 nM).

For `CCOP(O)(=S)OCC` [diethyl thiophosphoric acid], the “toxicity compared with the parent compound chlorpyriphos” value [2] is given as “considerably less toxic than the parent compound”.
